Assay results as given in PubChem BioAssay (NCI).
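96-well plates; 48 h exposure; 5 concentrations. Endpoints by linear interpolation between flanking doses. Not reached: highest tested concentration assigned. At the TGI there is no net growth.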

What was measured:
Assay in all cases: NCI anticancer screen, dose series, 48 h
IGROV1 ovarian = test system: IGROV1 ovarian
TK-10 renal = test system: TK-10 renal
M14 melanoma = test system: M14 melanoma
SK-OV-3 ovarian = test system: SK-OV-3 ovarian
MDA-MB-435 = test system: MDA-MB-435
HCT-116 colon = test system: HCT-116 colon
SF-295 CNS = test system: SF-295 CNS
SF-539 CNS = test system: SF-539 CNS
NCI-H522 lung = test system: NCI-H522 lung
MOLT-4 leukemia = test system: MOLT-4 leukemia
KM12 colon = test system: KM12 colon
SF-268 CNS = test system: SF-268 CNS
NCI-H460 lung = test system: NCI-H460 lung
NCI-H23 lung = test system: NCI-H23 lung
SN12C renal = test system: SN12C renal
A549 NSCLC = test system: A549 NSCLC
NCI-H226 lung = test system: NCI-H226 lung
CCRF-CEM leukemia = test system: CCRF-CEM leukemia
OVCAR-5 ovarian = test system: OVCAR-5 ovarian
MCF7 breast = test system: MCF7 breast
HOP-92 NSCLC = test system: HOP-92 NSCLC
HCC-2998 colon = test system: HCC-2998 colon
COLO 205 colon = test system: COLO 205 colon
K-562 leukemia = test system: K-562 leukemia
SNB-19 CNS = test system: SNB-19 CNS
786-0 renal = test system: 786-0 renal
HT29 colon = test system: HT29 colon
UACC-257 melanoma = test system: UACC-257 melanoma
T-47D breast = test system: T-47D breast
SR leukemia = test system: SR leukemia
MDA-N = test system: MDA-N
SK-MEL-28 melanoma = test system: SK-MEL-28 melanoma
HS 578T breast = test system: HS 578T breast
UACC-62 melanoma = test system: UACC-62 melanoma
UO-31 renal = test system: UO-31 renal
A498 renal = test system: A498 renal
EKVX NSCLC = test system: EKVX NSCLC
OVCAR-3 ovarian = test system: OVCAR-3 ovarian
OVCAR-8 ovarian = test system: OVCAR-8 ovarian
BT-549 breast = test system: BT-549 breast
DU-145 prostate = test system: DU-145 prostate
OVCAR-4 ovarian = test system: OVCAR-4 ovarian
PC-3 prostate = test system: PC-3 prostate
HOP-62 NSCLC = test system: HOP-62 NSCLC
MALME-3M melanoma = test system: MALME-3M melanoma
HL-60(TB) leukemia = test system: HL-60(TB) leukemia
CAKI-1 renal = test system: CAKI-1 renal
MDA-MB-231 breast = test system: MDA-MB-231 breast
SNB-75 CNS = test system: SNB-75 CNS
SW-620 colon = test system: SW-620 colon
U251 CNS = test system: U251 CNS
ACHN renal = test system: ACHN renal
SK-MEL-5 melanoma = test system: SK-MEL-5 melanoma
RXF 393 renal = test system: RXF 393 renal
NCI/ADR-RES ovarian = test system: NCI/ADR-RES ovarian
RPMI-8226 leukemia = test system: RPMI-8226 leukemia
SK-MEL-2 melanoma = test system: SK-MEL-2 melanoma
LOX IMVI melanoma = test system: LOX IMVI melanoma
HCT-15 colon = test system: HCT-15 colon

CC1C2CC(CC2N)C1(C)C (stereo unspecified) showed a TGI (IGROV1 ovarian) of over 100 µM, a TGI (TK-10 renal) of over 100 µM and a TGI (M14 melanoma) of over 100 µM. For the same molecule, the TGI (SK-OV-3 ovarian) was over 100 µM, the TGI (MDA-MB-435) was over 100 µM and the TGI (HCT-116 colon) was over 100 µM. It also gave a TGI (SF-295 CNS) of over 100 µM, a TGI (SF-539 CNS) of over 100 µM and a TGI (NCI-H522 lung) of over 100 µM. For the same molecule, the TGI (MOLT-4 leukemia) was over 100 µM, the TGI (KM12 colon) was over 100 µM and the TGI (SF-268 CNS) was over 100 µM. The TGI (NCI-H460 lung) was over 100 µM, the TGI (NCI-H23 lung) was over 100 µM and the TGI (SN12C renal) was over 100 µM. It also gave a TGI (A549 NSCLC) of over 100 µM, a TGI (NCI-H226 lung) of over 100 µM and a TGI (CCRF-CEM leukemia) of over 100 µM. It also gave a TGI (OVCAR-5 ovarian) of over 100 µM, a TGI (MCF7 breast) of over 100 µM and a TGI (HOP-92 NSCLC) of over 100 µM. It also gave a TGI (HCC-2998 colon) of over 100 µM, a TGI (COLO 205 colon) of over 100 µM and a TGI (K-562 leukemia) of over 100 µM. For the same molecule, the TGI (SNB-19 CNS) was over 100 µM, the TGI (786-0 renal) was over 100 µM and the TGI (HT29 colon) was over 100 µM. The TGI (UACC-257 melanoma) was over 100 µM, the TGI (T-47D breast) was over 100 µM and the TGI (SR leukemia) was over 100 µM. For the same molecule, the TGI (MDA-N) was over 100 µM, the TGI (SK-MEL-28 melanoma) was over 100 µM and the TGI (HS 578T breast) was over 100 µM. For the same molecule, the TGI (UACC-62 melanoma) was over 100 µM, the TGI (UO-31 renal) was over 100 µM and the TGI (A498 renal) was over 100 µM. The TGI (EKVX NSCLC) was over 100 µM, the TGI (OVCAR-3 ovarian) was over 100 µM and the TGI (OVCAR-8 ovarian) was over 100 µM. It also gave a TGI (BT-549 breast) of over 100 µM, a TGI (DU-145 prostate) of over 100 µM and a TGI (OVCAR-4 ovarian) of over 100 µM. It also gave a TGI (PC-3 prostate) of over 100 µM, a TGI (HOP-62 NSCLC) of over 100 µM and a TGI (MALME-3M melanoma) of over 100 µM. It also gave a TGI (HL-60(TB) leukemia) of over 100 µM, a TGI (CAKI-1 renal) of over 100 µM and a TGI (MDA-MB-231 breast) of over 100 µM. It also gave a TGI (SNB-75 CNS) of over 100 µM, a TGI (SW-620 colon) of over 100 µM and a TGI (U251 CNS) of over 100 µM. The TGI (ACHN renal) was over 100 µM and the TGI (SK-MEL-5 melanoma) was over 100 µM.

In the case of CCOC(=O)Cn1nnc2cc(Nc3nc4ccccc4nc3C(=O)OCC)ccc21, the TGI (IGROV1 ovarian) is reported as over 100 µM, the TGI (TK-10 renal) is reported as 59 µM and the TGI (M14 melanoma) is reported as over 100 µM. The TGI (SK-OV-3 ovarian) was over 100 µM, the TGI (RXF 393 renal) was 64.8 µM and the TGI (MDA-MB-435) was over 100 µM. It also gave a TGI (HCT-116 colon) of over 100 µM, a TGI (SF-295 CNS) of over 100 µM and a TGI (SF-539 CNS) of 58.6 µM. It also gave a TGI (NCI-H522 lung) of over 100 µM, a TGI (MOLT-4 leukemia) of over 100 µM and a TGI (KM12 colon) of over 100 µM. The TGI (SF-268 CNS) was over 100 µM, the TGI (NCI-H460 lung) was over 100 µM and the TGI (NCI-H23 lung) was over 100 µM. It also gave a TGI (SN12C renal) of over 100 µM, a TGI (A549 NSCLC) of over 100 µM and a TGI (NCI-H226 lung) of over 100 µM. The TGI (CCRF-CEM leukemia) was over 100 µM, the TGI (OVCAR-5 ovarian) was over 100 µM and the TGI (MCF7 breast) was over 100 µM. The TGI (HOP-92 NSCLC) was 50 µM, the TGI (HCC-2998 colon) was over 100 µM and the TGI (COLO 205 colon) was over 100 µM. For the same molecule, the TGI (K-562 leukemia) was over 100 µM, the TGI (SNB-19 CNS) was over 100 µM and the TGI (786-0 renal) was over 100 µM. It also gave a TGI (HT29 colon) of over 100 µM, a TGI (NCI/ADR-RES ovarian) of over 100 µM and a TGI (UACC-257 melanoma) of over 100 µM. For the same molecule, the TGI (T-47D breast) was over 100 µM, the TGI (RPMI-8226 leukemia) was over 100 µM and the TGI (SR leukemia) was over 100 µM. The TGI (MDA-N) was over 100 µM, the TGI (SK-MEL-28 melanoma) was over 100 µM and the TGI (HS 578T breast) was over 100 µM. It also gave a TGI (UACC-62 melanoma) of over 100 µM, a TGI (UO-31 renal) of 19.4 µM and a TGI (A498 renal) of over 100 µM. It also gave a TGI (EKVX NSCLC) of over 100 µM, a TGI (OVCAR-3 ovarian) of over 100 µM and a TGI (SK-MEL-2 melanoma) of over 100 µM. The TGI (OVCAR-8 ovarian) was over 100 µM, the TGI (BT-549 breast) was over 100 µM and the TGI (LOX IMVI melanoma) was over 100 µM. It also gave a TGI (DU-145 prostate) of over 100 µM, a TGI (OVCAR-4 ovarian) of over 100 µM and a TGI (PC-3 prostate) of over 100 µM. The TGI (HOP-62 NSCLC) was 79.6 µM, the TGI (MALME-3M melanoma) was over 100 µM and the TGI (HL-60(TB) leukemia) was over 100 µM. It also gave a TGI (CAKI-1 renal) of over 100 µM, a TGI (SNB-75 CNS) of 9.39 µM and a TGI (SW-620 colon) of over 100 µM. It also gave a TGI (U251 CNS) of over 100 µM, a TGI (ACHN renal) of over 100 µM and a TGI (SK-MEL-5 melanoma) of over 100 µM. The TGI (HCT-15 colon) was over 100 µM.
